# Laboratory results taken from patent publication US20250009614A1 (priority 2021, published 2025).
# B1: cyanovirin-N (protein, UniProt P81180 1-101, looked up)
# Cyanovirin-N: LGKFSQTCYNSAIQGSVLTSTCERTNGGYNTSSIDLNSVIENVDGSLKWQPSNFIETCRNTQLAGSSELAAECKTRAQQFVSTKINLDDHIANIDGTLKYE
# Assays:
# [1] = test system: A549 cells; assay: In-vitro cytotoxicity, MTT assay; conditions: 24 hours
# [2] = test system: human skin; assay: Skin irritancy patch test; type: in vivo; conditions: occluded patch, neat
# Description: The objective of the study was to determine skin irritancy potential of the nanoemulsion hand sanitizer products of the invention. The study was conducted according to internationally recognized Good Clinical Practice Guidelines. Permission to conduct the study was covered under the protocol approval for project MREC/H/48/2014: CR of the Research, Ethics and Publications Committee of the Sefako Makgatho Health Sciences University. Recruitment for the study began two weeks before the commencement of the study and approximately 25 panellists were recruited according to the study requirements, to commence the study with a test panel of 20. Potential panellists attended a series of study briefings held during the week prior to the study. Panellists were verbally briefed and given the Study Instructions, Informed Consent forms (plus coloured duplicate copies of the latter).
# Panellists were given specifically timed appointments for the whole study. Unless otherwise stated in the summary, twenty adult female volunteers were used, of whom five had sensitive skins (as determined from the subject enrolment questionnaire). Signed consent forms were obtained from all subjects. Subjects with a history of clinical dermal abnormalities or who are taking or using medication which may affect test results through mediation of the inflammatory response were excluded. […]
# Briefly, the study procedure was as follows; Controls and products were applied to the inner forearm of each volunteer in a randomized, blinded pattern at zero hours and repeated on the same position at 24 hours. A measured volume of control or pieces of product was placed in the respective chamber and the chamber attached to the forearm. […]
# The protocol uses 1% sodium lauryl sulphate (SLS) solution as a positive control and de-ionized water as a negative control. A measured amount of 0.02 ml of sodium lauryl sulphate and de-ionized water was applied. […]
# The maximum irritancy (as calculated by the mean visual score+one standard deviation of the visual score) for the products and the controls is tabulated below. […]
# [3] = test system: HIV-1 pseudovirus; conditions: infection of 100 TCID50; cited from earlier work
Molecule,cytotoxicity (in words) [1],"Maximum value (mean visual score + sd) ([2]; 0-3 scale, 20 panellists)",Conclusion (irritancy category) [2],Time point (hours) of maximum value [2] [h],reported IC50 (as mass) [3] [µg]
"C=C(C)[C@@H]1CCC(C)=C[C@H]1c1c(O)cc(CCCCC)cc1O [CBD, cannabidiol]",significant toxicity,–,–,–,–
"CCCCCCCCCCCCOS(=O)(=O)[O-].[Na+] [H, Sodium Lauryl Sulphate]",–,2.18,Irritant (product mean visual score+SD >1.5—Product is irritant),72,–
B1,significant toxicity,–,–,–,22 to 340
